In ChEMBL document CHEMBL4673348, “Penipyranicins A-C: Antibacterial Methylpyran Polyketides from a Hydrothermal Spring Sediment Penicillium sp” (2020) one finds MIC data, which are given here for six compounds.

In brackets after ≈: the same amount, converted by molar mass.

What all share (assay type): functional
The subject of one assay is Pseudomonas aeruginosa. In words: Antibacterial activity against Pseudomonas aeruginosa NR-117678.1 assessed as reduction in cell viability after 24 hrs by microdilution method. On the technique in general: In broth dilution the organism is exposed to a series of concentrations in liquid medium.
Assay [1] in a line: Antibacterial activity against Escherichia fergusonii CU928158.2 assessed as reduction in cell viability after 24 hrs by microdilution method.
Another assay relates to Bacillus licheniformis. Kind of assay: Antibacterial activity against Bacillus licheniformis KX785171.1 assessed as reduction in cell viability after 24 hrs by microdilution method.
The next assay has as its system Staphylococcus aureus. Kind of assay: Antibacterial activity against Staphylococcus aureus CP011526.1 assessed as reduction in cell viability after 24 hrs by microdilution method.
The subject of a further assay is Enterobacter hormaechei. In words: Antibacterial activity against Enterobacter xiangfangensis CP017183.1 assessed as reduction in cell viability after 24 hrs by microdilution method. As to conditions: subsp. xiangfangensis CP017183.1.

For `COc1cc(O)c(C(=O)O)c(C2=COC(C(=O)O)=C[C@H]2C)c1C(=O)O`, the MIC (in general, the lowest concentration found to suppress growth) with Pseudomonas aeruginosa was 1.4 µg/mL (≈ 4 µM); in assay [1], 2.7 µg/mL (≈ 7.71 µM); with Bacillus licheniformis, 8.4 µg/mL (≈ 24 µM); with Staphylococcus aureus, 6.8 µg/mL (≈ 19.4 µM); in the assay on Enterobacter hormaechei, 0.9 µg/mL (≈ 2.57 µM).
On the same counts, the results for `NCC[C@H](O)C(=O)N[C@@H]1C[C@H](N)[C@@H](O[C@H]2O[C@H](CN)[C@@H](O)[C@H](O)[C@H]2O)[C@H](O)[C@H]1O[C@H]1O[C@H](CO)[C@@H](O)[C@H](N)[C@H]1O` [AMIKACIN] are 0.8 µg/mL (≈ 1.37 µM), 0.4 µg/mL (≈ 0.683 µM), 0.3 µg/mL (≈ 0.512 µM), 0.5 µg/mL (≈ 0.854 µM) and 0.2 µg/mL (≈ 0.342 µM).
On to `O=c1cc(CO)occ1O` [KOJIC ACID], for which the MIC with Pseudomonas aeruginosa came to 2.9 µg/mL (≈ 20.4 µM); in assay [1], 3.5 µg/mL (≈ 24.6 µM); with Bacillus licheniformis, 14.8 µg/mL (≈ 104 µM); in the assay on Staphylococcus aureus, 9.5 µg/mL (≈ 66.8 µM); in the assay on Enterobacter hormaechei, 1.6 µg/mL (≈ 11.3 µM).
In the case of `COc1cc(O)cc(C2=COC(C(=O)O)=C[C@H]2C)c1`, the MIC in the assay on Pseudomonas aeruginosa was 18.4 µg/mL (≈ 70.2 µM); in assay [1] it was 13.2 µg/mL (≈ 50.3 µM); in the assay with Bacillus licheniformis, 21.6 µg/mL (≈ 82.4 µM); in the assay on Staphylococcus aureus it was above 25 µg/mL; with Enterobacter hormaechei, 15.8 µg/mL (≈ 60.2 µM).
Consider `COc1cc(O)c2c3c(c(C)cc(C(=O)O)c13)[C@H](OC)OC2=O`, for which the MIC came out at 4.7 µg/mL (≈ 14.8 µM) in the assay with Pseudomonas aeruginosa; 11.2 µg/mL (≈ 35.2 µM) in assay [1]; 3.8 µg/mL (≈ 11.9 µM) in the assay with Bacillus licheniformis; 6.3 µg/mL (≈ 19.8 µM) in the assay with Staphylococcus aureus; 7.8 µg/mL (≈ 24.5 µM) in the assay on Enterobacter hormaechei.
On to `COc1cc(O)c(C(=O)O)c(C2=COC(C(=O)O)=C[C@H]2C)c1`, for which the minimal inhibitory concentration (MIC) was found to be 5.2 µg/mL (≈ 17 µM) in the assay with Pseudomonas aeruginosa; 7.8 µg/mL (≈ 25.5 µM) in assay [1]; 9.7 µg/mL (≈ 31.7 µM) in the assay on Bacillus licheniformis; 10.3 µg/mL (≈ 33.6 µM) in the assay with Staphylococcus aureus; 3.7 µg/mL (≈ 12.1 µM) in the assay on Enterobacter hormaechei.
